Assay [1] has as its system Arabidopsis thaliana Col‐0 seedlings. The experiment in a line: Root growth inhibition bioassay, wild type. Conditions: 8 days, up to 10 μM. In kind it is in vivo. Here is the method:
A. thaliana seed was surface sterilized in 10 mL of 50% bleach and two drops of Tween‐20 for 12 min and rinsed six times with sterile water. Sterile growth media consisted of half‐strength Murashige and Skoog salts supplemented with 0.4% agar and 0.8% sucrose. In a laminar flow hood, 8 mL of liquid media was transferred to sterile test‐tubes placed in a heat block to maintain media in a liquid state. Compounds were previously diluted in 50/50 DMSO/water to a known molar concentration. A 50‐μL aliquot of diluted compound was added to each tube to give a specified final concentration, normally 10, 1, 0.1, 0.01 or 0.001 μM. A single tube was treated with solvent only as a control. Test compounds were mixed into the media by pipetting up and down three times, then 6 mL of media with test compound was added to one well in a six‐well plate, working from low‐to‐high concentration, and allowed to solidify in the laminar flow hood. Approximately 15 sterilized seeds were placed on the solidified surface and the remaining 2 mL of liquid media was added to cover and disperse seeds. Plates were sealed with paraffin and moved to a Conviron growth chamber set to 60% humidity, 25 °C and light intensity 100 μE m^2 s^−1 with a 16 h photoperiod. After 8 days primary root measurements of five random plants were taken by removing plants from media and measuring with a ruler. […]

For assay [2], the system named is Arabidopsis thaliana afb5‐1 seedlings. The experiment in a line: Root growth inhibition bioassay, afb5‐1 mutant. Format: in vivo. Particulars: afb5‐1 vs WT dose-response, 8 days. Here is the method:
A. thaliana seed was surface sterilized in 10 mL of 50% bleach and two drops of Tween‐20 for 12 min and rinsed six times with sterile water. Sterile growth media consisted of half‐strength Murashige and Skoog salts supplemented with 0.4% agar and 0.8% sucrose. In a laminar flow hood, 8 mL of liquid media was transferred to sterile test‐tubes placed in a heat block to maintain media in a liquid state. Compounds were previously diluted in 50/50 DMSO/water to a known molar concentration. A 50‐μL aliquot of diluted compound was added to each tube to give a specified final concentration, normally 10, 1, 0.1, 0.01 or 0.001 μM. A single tube was treated with solvent only as a control. Test compounds were mixed into the media by pipetting up and down three times, then 6 mL of media with test compound was added to one well in a six‐well plate, working from low‐to‐high concentration, and allowed to solidify in the laminar flow hood. Approximately 15 sterilized seeds were placed on the solidified surface and the remaining 2 mL of liquid media was added to cover and disperse seeds. Plates were sealed with paraffin and moved to a Conviron growth chamber set to 60% humidity, 25 °C and light intensity 100 μE m^2 s^−1 with a 16 h photoperiod. After 8 days primary root measurements of five random plants were taken by removing plants from media and measuring with a ruler. Treatments were compared against the solvent control to determine percentage root growth inhibition. Each experiment was run twice and averages were combined for analysis.

Assay [3] addresses T1, AtTIR1 (Arabidopsis thaliana, UniProt Q570C0).
T1 construct: His10 (N, cleaved yes); eGFP (N, cleaved yes); FLAG (N, cleaved yes); made in house; host or cells: baculovirus; Trichoplusia ni Hi5 cells (virus generated in Sf9)
Put plainly: biochemical. In kind it is binding. As to the method: (§1) Auxin binding assays using surface plasmon resonance (SPR) were performed on a Biacore 2000 as described previously.[3], [18], [23] Protein was stored on ice and protein concentrations were assayed by A280 nm measurement (nanodrop, Thermo Scientific). Briefly, AtAux/IAA7 degron peptide was immobilized on streptavidin‐coated SPR chips, and binding was measured in the presence of IAA or auxin analogue by recruitment of the TIR1/AFB protein from solution as the co‐receptor complex formed on the chip. Kinetic analyses were performed by single cycle kinetics on a Biacore T200 (Cytiva Life Sciences), titrating compounds against a fixed concentration of TIR1 before injection. The degron peptide density on the chips was controlled so that R max < 300 Response UNits (RU).

The target in assay [4] is T2, AtAFB5 (Arabidopsis thaliana, UniProt Q9LTX2).
T2 construct: His10 (N, cleaved yes); eGFP (N, cleaved yes); FLAG (N, cleaved yes); made in house; host or cells: baculovirus; Trichoplusia ni Hi5 cells (virus generated in Sf9)
Put plainly: biochemical. In kind it is binding. As to the method: as §1

Assay [5] concerns the target T1, AtTIR1. The experiment in a line: SPR relative binding (co-receptor complex formation with Aux/IAA7 degron), AtTIR1. Particulars: 50 μM compound; for % of IAA binding: normalized to IAA = 100%. As to the method: as §1
In assay [6] the target is T2, AtAFB5. The experiment in a line: SPR relative binding (co-receptor complex formation with Aux/IAA7 degron), AtAFB5. Conditions: 50 μM compound; for % of IAA binding: normalized to IAA = 100%. Here is the method: as §1
The subject of assay [7] is Arabidopsis thaliana afb5‐1 mutant line. Format: in vivo. Particulars: for GR50 (DW % of NT): dry weight at 14 DAT; for Resistance ratio (afb5‐1 vs WT), DW: ratio of dry weight GR50 values; for Resistance ratio (afb5‐1 vs WT), DW / Resistance ratio (afb5‐1 vs WT), visual injury: foliar application; for Resistance ratio (afb5‐1 vs WT), visual injury: ratio of visual injury GR50 values. As to the method:
(§2) Bioassays were carried out with the model species Arabidopsis thaliana. The wild type (WT) Col‐0 line was compared to an afb5‐1 mutant line in a Col‐0 background containing a missense mutation of R609K.[11] A. thaliana seeds were sown on Metro‐mix 360 potting mix (Sungro Horticulture) supplemented with vermiculite and stratified for 3 days at 4 °C in the dark. Flats were moved to a growth chamber (as above) and a plastic lid was placed on the flat. On germination, the lid was removed. After 2 weeks in the growth chamber, seedlings were transplanted into 3‐in. pots with Metro‐mix 360 potting mix and moved to a greenhouse. The greenhouse was maintained at a day/night temperature of 23/22 °C and supplemented with light to complete a 16 h photoperiod. Plants were allowed to recover from transplanting for 1 week prior to applications. A. thaliana seedlings were sprayed with test compounds at five rates with four replications. Tests included nontreated and solvent check controls. Individual compound doses varied and were based on plate test data or anecdotal potency. Compounds were formulated as technical material and were initially dissolved in 1 part 97:3 (v/v) acetone: dimethylsufoxide (DMSO) followed by 5 parts 1.5% (v/v) Agridex crop oil concentrate in distilled water to give a final concentration of 1.25% (v/v) Agridex. Formulated compounds were sprayed at a volume of 187 L ha^−1 at a spray height of 43 cm above the plants with an overhead Mandel track sprayer set with 8002 E Tee jet nozzle. Plants were treated at rosette stage just prior to or at initiation of bolting. After spray application, plants were allowed to dry then moved back to the greenhouse. Plants were grown in the greenhouse (same conditions as above) for 2 weeks until harvest. Visual injury/growth reduction observations were made at 7 and 14 days after treatment (DAT) and scored where 0% = no growth reduction and 100% = complete growth reduction or plant death. At 14 DAT the plants were harvested and dried to collect dry weight (DW) biomass.
(§3) The data collected in the foliar application of compounds generated a measure of sensitivity or dose response. The data was analyzed by regression in JMP 10.0 and fit to a nonlinear exponential three parameter fit model:
(§4) where a is the asymptote, b is the scale and c is the rate of growth. The model was used to determine the herbicidal dose that caused 50% reduction in growth (GR50). GR50 values were compared between mutant and WT to give an indication of fold resistance over WT (Table 3). A log‐logistic model[24] was also used to fit the data and gave similar GR50 values with greater standard errors without changing the pattern of responsiveness.

For assay [8], the target named is T3, AtAFB2 (Arabidopsis thaliana, UniProt Q9LW29).
T3 construct: His10 (N, cleaved yes); eGFP (N, cleaved yes); FLAG (N, cleaved yes); made in house; host or cells: baculovirus; Trichoplusia ni Hi5 cells (virus generated in Sf9)
The experiment in a line: SPR relative binding (co-receptor complex formation with Aux/IAA7 degron), AtAFB2. Conditions: 50 μM compound; for % of IAA binding: normalized to IAA = 100%. Here is the method:
as §1

The subject of assay [9] is Arabidopsis thaliana wild type (WT) Col‐0. Put plainly: Foliar efficacy bioassay, wild type. In kind it is in vivo. Particulars: foliar application; for GR50 (DW % of NT): dry weight at 14 DAT. Here is the method: as §2, §3, §4
The target of assay [10] is T3, AtAFB2. The experiment in a line: SPR single cycle kinetics, AtAFB2. In kind it is binding. As to the method:
as §1

Where [11] appears, read: averaged equilibrium dissociation constant, SPR single cycle kinetics, read-out: Ave KD.

Structures are written as SMILES. Like-named read-outs stand apart in the source and are kept apart here.

T3 sequence (Q9LW29 whole entry, other chains not shown): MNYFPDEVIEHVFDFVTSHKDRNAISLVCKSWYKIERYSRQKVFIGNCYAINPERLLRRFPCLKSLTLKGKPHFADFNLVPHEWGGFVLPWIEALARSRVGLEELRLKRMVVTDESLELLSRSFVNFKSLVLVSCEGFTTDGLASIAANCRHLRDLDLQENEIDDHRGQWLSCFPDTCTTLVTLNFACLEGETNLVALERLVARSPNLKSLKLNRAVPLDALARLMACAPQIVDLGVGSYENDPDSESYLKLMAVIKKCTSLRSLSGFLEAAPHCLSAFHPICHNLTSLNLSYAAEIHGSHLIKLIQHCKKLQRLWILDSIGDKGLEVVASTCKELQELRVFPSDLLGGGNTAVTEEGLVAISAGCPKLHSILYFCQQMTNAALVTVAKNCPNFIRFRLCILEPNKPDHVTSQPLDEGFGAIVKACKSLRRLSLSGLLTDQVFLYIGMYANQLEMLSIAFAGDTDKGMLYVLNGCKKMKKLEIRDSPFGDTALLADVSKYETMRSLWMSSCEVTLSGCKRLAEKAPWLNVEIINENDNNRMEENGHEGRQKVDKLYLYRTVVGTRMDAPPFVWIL
T3 sequence (Q39255 whole entry partner, other chains not shown): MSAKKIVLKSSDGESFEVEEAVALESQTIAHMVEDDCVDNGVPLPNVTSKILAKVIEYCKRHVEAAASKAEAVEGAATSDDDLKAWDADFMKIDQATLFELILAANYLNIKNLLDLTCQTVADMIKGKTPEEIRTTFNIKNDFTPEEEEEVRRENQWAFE
T1 sequence (Q570C0 whole entry, other chains not shown): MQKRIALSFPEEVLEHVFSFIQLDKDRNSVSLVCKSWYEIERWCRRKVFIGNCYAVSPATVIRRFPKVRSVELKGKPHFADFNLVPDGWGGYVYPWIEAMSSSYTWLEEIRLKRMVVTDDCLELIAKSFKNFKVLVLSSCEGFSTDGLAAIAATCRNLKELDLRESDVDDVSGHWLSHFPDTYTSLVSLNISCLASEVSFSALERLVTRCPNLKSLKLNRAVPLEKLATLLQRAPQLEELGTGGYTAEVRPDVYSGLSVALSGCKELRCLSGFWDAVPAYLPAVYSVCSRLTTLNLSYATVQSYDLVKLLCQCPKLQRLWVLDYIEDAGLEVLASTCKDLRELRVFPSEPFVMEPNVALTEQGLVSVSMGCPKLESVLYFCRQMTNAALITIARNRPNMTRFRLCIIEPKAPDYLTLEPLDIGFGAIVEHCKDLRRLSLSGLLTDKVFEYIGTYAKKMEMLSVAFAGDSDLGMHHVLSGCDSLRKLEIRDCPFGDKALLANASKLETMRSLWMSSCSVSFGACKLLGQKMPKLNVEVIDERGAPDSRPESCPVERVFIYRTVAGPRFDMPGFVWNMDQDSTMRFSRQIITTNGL
T1 sequence (Q39255 whole entry partner, other chains not shown): as the sequence (Q39255 whole entry partner, other chains not shown) above
T2 sequence (Q9LTX2 whole entry, other chains not shown): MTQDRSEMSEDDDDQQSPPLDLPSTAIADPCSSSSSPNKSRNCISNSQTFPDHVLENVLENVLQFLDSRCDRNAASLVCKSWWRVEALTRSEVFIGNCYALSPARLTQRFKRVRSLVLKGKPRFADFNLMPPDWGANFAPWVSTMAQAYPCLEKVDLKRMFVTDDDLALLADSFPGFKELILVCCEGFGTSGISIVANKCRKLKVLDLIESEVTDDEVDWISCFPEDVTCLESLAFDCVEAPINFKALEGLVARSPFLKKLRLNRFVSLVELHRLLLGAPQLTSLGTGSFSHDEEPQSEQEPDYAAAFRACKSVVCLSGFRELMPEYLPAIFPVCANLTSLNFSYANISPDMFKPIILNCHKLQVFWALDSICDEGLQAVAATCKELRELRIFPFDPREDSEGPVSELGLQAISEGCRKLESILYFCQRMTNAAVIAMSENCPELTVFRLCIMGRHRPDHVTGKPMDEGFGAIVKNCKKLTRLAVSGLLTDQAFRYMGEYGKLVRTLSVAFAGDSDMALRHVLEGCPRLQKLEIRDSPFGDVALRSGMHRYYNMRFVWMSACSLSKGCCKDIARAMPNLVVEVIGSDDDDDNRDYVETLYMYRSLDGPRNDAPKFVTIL
T2 sequence (Q39255 whole entry partner, other chains not shown): as the sequence (Q39255 whole entry partner, other chains not shown) above

Regarding `Nc1c(Cl)c(Cl)nc(C(=O)O)c1Cl` [Picloram], the “Primary root growth inhibition (in words)” value in assay [1] is given as “low level of phytotoxicity”. Further, in assay [2], the “Resistance of afb5‐1 in root growth inhibition (in words)” value is recorded as “considerable resistance”. The Kd (usually the constant that tells how readily two partners part at equilibrium) came out at 319 µM in assay [3] and 107 µM in assay [4]. Also, the “Relative binding (in words)” value in assay [5] (compared to IAA), in assay [6] (compared to IAA) and in assay [8] (compared to IAA) was “relatively low binding” each time. For the same compound, the “GR50 (DW % of NT)” value in [7] (afb5‐1, foliar application) was determined as 996 g ai ha^−1; in assay [9], 13.7 g ai ha^−1. The “Resistance ratio (afb5‐1 vs WT), DW” value in [7] is given as 72.7. Also, the “GR50 (visual injury)” value in assay [9] is reported as 202 g ai ha^−1.

On to `O=C(O)COc1ccc(Cl)cc1Cl` [2,4‐D, 2,4‐dichlorophenoxyacetic acid], for which the “Resistance of afb5‐1 in root growth inhibition (in words)” value in assay [2] is “No resistance”. For the same compound, the results for the dissociation constant Kd in assay [10], in [3] and in assay [4] were 392 µM, 229 µM and 152 µM, respectively. In addition, the figures for the “% of IAA binding” value in [5], in [6] and in assay [8] were 29%, 40% and 22%, respectively. The “GR50 (DW % of NT)” value in [7] (afb5‐1, foliar application) was 9.9 g ai ha^−1; in assay [9], 3.9 g ai ha^−1. The “GR50 (visual injury)” value is given as 40.5 g ai ha^−1 in assay [7] (afb5‐1, foliar application) and 19.2 g ai ha^−1 in assay [9]. Further, the “Resistance ratio (afb5‐1 vs WT), DW” value in [7] stood at 2.5. The “Resistance ratio (afb5‐1 vs WT), visual injury” value in [7] is 2.1.

As to `COc1c(Cl)ccc(-c2cc(N)c(Cl)c(C(=O)O)n2)c1F` [Halauxifen], the “Resistance of afb5‐1 in root growth inhibition (in words)” value in assay [2] was “considerable resistance”. Also, the dissociation constant Kd in assay [10] (setting [11]) amounted to 333 µM; in assay [3] (setting [11]), 128 µM; in [4] (setting [11]), 2.4 µM. For the same compound, the results for the “% of IAA binding” value in [5], in assay [6] and in assay [8] were 10%, 170% and less than 5%, respectively. For the same compound, the “GR50 (DW % of NT)” value in assay [7] (afb5‐1, foliar application) is reported as 0.6 g ai ha^−1; in [9] it was 0.08 g ai ha^−1. The “GR50 (visual injury)” value in assay [7] (afb5‐1, foliar application) stood at 2.4 g ai ha^−1; in assay [9], 0.4 g ai ha^−1. Moreover, in assay [7], the “Resistance ratio (afb5‐1 vs WT), DW” value was 7.5. For the same compound, in [7], the “Resistance ratio (afb5‐1 vs WT), visual injury” value is 6.

As to `O=C(O)c1c(Cl)ccc2cc(Cl)cnc12` [Quinclorac], in [1], the “Primary root growth inhibition (in words)” value is recorded as “very low root growth inhibition”. Besides, the “Resistance of afb5‐1 in root growth inhibition (in words)” value in [2] is recorded as “No resistance”. For the same compound, the “% of IAA binding” value in assay [5], in assay [6] and in [8] was less than 5% throughout. Besides, the “Foliar phytotoxicity / resistance (in words)” value in assay [7] (afb5‐1, foliar application) is “did not provide much phytotoxicity”. The “GR50 (DW % of NT)” value in [7] (afb5‐1, foliar application) worked out at 1002 g ai ha^−1; in [9] it was 1015 g ai ha^−1. Moreover, the “Resistance ratio (afb5‐1 vs WT), DW” value in assay [7] was 1. Further, the “Foliar phytotoxicity (in words)” value in assay [9] is recorded as “did not provide much phytotoxicity”.

(Values after article PMC10952535, “The differential binding and biological efficacy of auxin herbicides” (Pest Management Science, 2022).)
